Experiment [1] deals with BJ. The experiment in a line: BJ-TERT-LT-ST fibroblast viability loss – cell-based, RAS-independent, luminescence, dose response (AID 1935).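 Note: BJ fibroblasts immortalized with TERT plus LT and ST oncogenes.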 The experiment is classed as functional. The following applies: Homo sapiens.
Experiment [2] has as its target T1, DNA repair protein RAD52 homolog (Homo sapiens, UniProt P43351).
T1 sequence (P43351 whole entry): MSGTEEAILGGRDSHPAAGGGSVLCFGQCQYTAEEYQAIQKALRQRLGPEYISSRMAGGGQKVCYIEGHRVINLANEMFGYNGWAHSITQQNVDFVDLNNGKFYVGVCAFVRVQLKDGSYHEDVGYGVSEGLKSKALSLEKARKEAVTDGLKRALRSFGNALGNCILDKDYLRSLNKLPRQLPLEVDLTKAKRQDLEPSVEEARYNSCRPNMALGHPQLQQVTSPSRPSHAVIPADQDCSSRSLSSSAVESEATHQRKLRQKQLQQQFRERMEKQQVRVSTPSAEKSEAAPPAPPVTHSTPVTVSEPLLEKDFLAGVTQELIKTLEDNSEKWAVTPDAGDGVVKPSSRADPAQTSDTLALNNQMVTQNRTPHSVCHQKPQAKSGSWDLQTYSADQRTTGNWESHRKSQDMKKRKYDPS
It counts as functional, biochemical.

In experiment [3] the target is 72 kDa type IV collagenase (Homo sapiens, UniProt P08253). Kind of experiment: Dose Response validation of uHTS RPN11 inhibitor hits using a MMP-2 Fluorescence assay. It counts as functional.
Experiment [4] relates to BJ. The experiment in a line: cells. The following applies: Homo sapiens. The experiment is classed as functional, cell-based.
In the next experiment the target is Prothrombin (Bos taurus, UniProt P00735). Kind of experiment: thrombin protease inhibitors – biochemical, fluorescence polarization, uHTS hits, dose response (AID 602369). It counts as functional.
Experiment [5] concerns BJ. Kind of experiment: growth inhibition of engineered Ras-driven BJ cells – cell-based, alamar blue fluorescence, cherrypicked samples, dose response (AID 2631).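 Note: confirmatory dose-response assay in RAS-dependent BJ fibroblasts engineered with TERT, LT and ST, with cytotoxicity read by fluorescence.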 The following applies: Homo sapiens. It counts as functional.
In experiment [6] the target is 26S proteasome non-ATPase regulatory subunit 14 (Homo sapiens, UniProt O00487). Kind of experiment: inhibition of proteasome subunit RPN11 – biochemical, fluorescence polarization, uHTS hits, confirmation (AID 602368). The experiment is classed as functional.
Experiment [7] addresses T2, Heat shock factor protein 1 (Mus musculus, UniProt P38532).
T2 sequence (P38532 whole entry): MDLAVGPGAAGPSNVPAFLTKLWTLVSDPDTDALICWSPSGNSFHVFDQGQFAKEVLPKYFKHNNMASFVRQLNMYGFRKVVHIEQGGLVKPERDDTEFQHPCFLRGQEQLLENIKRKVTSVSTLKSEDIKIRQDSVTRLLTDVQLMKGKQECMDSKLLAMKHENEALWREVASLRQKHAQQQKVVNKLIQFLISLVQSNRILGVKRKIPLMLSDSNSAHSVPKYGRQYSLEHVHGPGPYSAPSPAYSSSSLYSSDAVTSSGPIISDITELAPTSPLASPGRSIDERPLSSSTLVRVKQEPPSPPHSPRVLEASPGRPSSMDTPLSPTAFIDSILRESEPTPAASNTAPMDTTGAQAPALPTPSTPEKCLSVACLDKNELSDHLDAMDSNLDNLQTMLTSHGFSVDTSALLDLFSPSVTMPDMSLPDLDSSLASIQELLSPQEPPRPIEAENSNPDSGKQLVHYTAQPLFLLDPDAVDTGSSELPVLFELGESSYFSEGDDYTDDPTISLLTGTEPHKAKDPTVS
The experiment in a line: decrease of HSF1-responsive luciferase luminescence – cell-based, NIH3T3, dose retest, confirmation (AID 2382).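 Note: NIH3T3 fibroblasts with HSF1-driven luciferase reporter stressed by proteasome inhibitor MG132; luminescence from HSF1-driven luciferase expression after 8 hours of MG132 stress.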 The experiment is classed as functional.

Experiment [8] relates to BJ. Kind of experiment: BJ-TERT fibroblast viability loss – cell-based, RAS-independent, luminescence, dose response (AID 1933). It counts as functional. The settings on record: Homo sapiens.
Experiment [9] in a line: DRD fibroblast viability loss – cell-based, non-viral oncogenic, luminescence, dose response (AID 1934). The experiment is classed as functional. The settings on record: Homo sapiens.
Experiment [10] addresses T3, Low molecular weight phosphotyrosine protein phosphatase (Homo sapiens, UniProt P24666).
T3 sequence (P24666 whole entry): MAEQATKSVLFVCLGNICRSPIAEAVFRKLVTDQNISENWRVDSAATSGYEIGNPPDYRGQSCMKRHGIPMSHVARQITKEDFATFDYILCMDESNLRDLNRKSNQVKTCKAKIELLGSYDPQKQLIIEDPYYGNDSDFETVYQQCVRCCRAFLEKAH
The experiment is classed as functional. The settings on record: read-out: IC50_Mean.

Experiment [11] deals with T4, Corticotropin-releasing factor receptor 2/Corticotropin-releasing factor-binding protein (Homo sapiens, UniProt P24387+Q13324).
T4 sequence (Q13324 whole entry): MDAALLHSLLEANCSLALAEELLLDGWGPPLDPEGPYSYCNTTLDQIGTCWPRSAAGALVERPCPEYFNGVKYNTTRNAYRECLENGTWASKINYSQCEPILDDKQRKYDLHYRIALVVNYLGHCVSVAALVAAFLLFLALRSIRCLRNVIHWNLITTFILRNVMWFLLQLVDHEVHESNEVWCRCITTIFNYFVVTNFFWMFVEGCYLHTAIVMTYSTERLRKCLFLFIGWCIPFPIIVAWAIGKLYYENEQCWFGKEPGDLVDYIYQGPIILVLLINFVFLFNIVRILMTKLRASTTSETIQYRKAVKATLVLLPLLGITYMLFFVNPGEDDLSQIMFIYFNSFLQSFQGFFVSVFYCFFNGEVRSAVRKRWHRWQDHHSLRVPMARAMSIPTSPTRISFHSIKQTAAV
T4 sequence (P24387 whole entry): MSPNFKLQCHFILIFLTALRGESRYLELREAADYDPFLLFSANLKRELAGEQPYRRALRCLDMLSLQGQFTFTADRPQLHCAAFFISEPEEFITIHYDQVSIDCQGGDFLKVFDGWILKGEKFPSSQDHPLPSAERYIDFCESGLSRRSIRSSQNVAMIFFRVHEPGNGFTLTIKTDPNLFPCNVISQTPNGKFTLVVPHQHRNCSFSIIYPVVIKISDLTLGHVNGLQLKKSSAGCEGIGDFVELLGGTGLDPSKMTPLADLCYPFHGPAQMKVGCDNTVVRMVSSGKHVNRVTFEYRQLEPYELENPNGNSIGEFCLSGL
The experiment in a line: activators of CRF receptor 2 with binding protein – uHTS hits, confirmation (AID 602473). The experiment is classed as functional. The following applies: read-out: EC50_Mean.

The target of experiment [12] is T4, Corticotropin-releasing factor receptor 2/Corticotropin-releasing factor-binding protein. Kind of experiment: Dose Response confirmation of uHTS hits for small molecule antagonists of the CRF-binding protein and CRF-R2 receptor complex. It counts as functional. The settings on record: read-out: IC50_Mean.
Experiment [13] can be described thus: viability of PTEN-deleted HCT116 cells – cell-based, HCT116 PTEN knockout, dose response (AID 1047).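 Note: HCT116 colon tumor cells with PTEN knocked out; cells exposed to compound for 60 hours before readout; potency for loss of cell viability measured by luminescence.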 It counts as functional.
Experiment [14] in a line: microbe, parasite or virus in culture. It counts as functional. The following applies: Mycobacterium tuberculosis.
Experiment [15] has as its target Peroxisome proliferator-activated receptor gamma/Nuclear receptor coactivator 2 (Homo sapiens, UniProt P37231). The experiment is classed as functional.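 Note: agonist potency for raising coactivator recruitment to the receptor.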
For experiment [16], the target named is T5, Replicative DNA helicase DnaB (Mycobacterium tuberculosis, UniProt P9WMR3).
T5 sequence (P9WMR3 whole entry): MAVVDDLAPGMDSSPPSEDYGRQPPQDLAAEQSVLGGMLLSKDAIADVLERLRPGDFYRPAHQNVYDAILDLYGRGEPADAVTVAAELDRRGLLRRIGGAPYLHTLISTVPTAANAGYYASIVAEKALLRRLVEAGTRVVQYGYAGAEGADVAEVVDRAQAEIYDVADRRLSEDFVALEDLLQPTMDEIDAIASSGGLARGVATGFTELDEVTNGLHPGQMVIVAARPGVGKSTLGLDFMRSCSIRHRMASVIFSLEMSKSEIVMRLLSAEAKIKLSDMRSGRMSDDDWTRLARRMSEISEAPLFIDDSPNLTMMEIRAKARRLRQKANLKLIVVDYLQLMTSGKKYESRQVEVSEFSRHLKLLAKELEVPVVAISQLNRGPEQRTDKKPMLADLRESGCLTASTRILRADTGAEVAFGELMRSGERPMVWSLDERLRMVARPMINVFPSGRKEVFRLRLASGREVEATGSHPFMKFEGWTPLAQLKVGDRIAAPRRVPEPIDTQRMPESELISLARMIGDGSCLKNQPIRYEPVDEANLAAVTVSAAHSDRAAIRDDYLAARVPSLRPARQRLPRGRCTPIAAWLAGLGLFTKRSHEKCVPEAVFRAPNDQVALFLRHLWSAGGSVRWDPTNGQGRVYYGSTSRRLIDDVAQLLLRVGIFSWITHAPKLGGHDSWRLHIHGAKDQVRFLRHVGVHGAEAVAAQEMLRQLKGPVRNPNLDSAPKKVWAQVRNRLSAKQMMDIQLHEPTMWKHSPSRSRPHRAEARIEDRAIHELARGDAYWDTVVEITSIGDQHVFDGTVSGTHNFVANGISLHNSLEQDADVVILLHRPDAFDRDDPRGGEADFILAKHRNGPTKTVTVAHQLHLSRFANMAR
Kind of experiment: DnaB intein splicing inhibitors, dose response, biochemical, cell-free fluorescence (AID 449749). The experiment is classed as functional.

In another experiment the target is T6, Protein RecA (Mycobacterium tuberculosis, UniProt P9WHJ3).
T6 sequence (P9WHJ3 whole entry): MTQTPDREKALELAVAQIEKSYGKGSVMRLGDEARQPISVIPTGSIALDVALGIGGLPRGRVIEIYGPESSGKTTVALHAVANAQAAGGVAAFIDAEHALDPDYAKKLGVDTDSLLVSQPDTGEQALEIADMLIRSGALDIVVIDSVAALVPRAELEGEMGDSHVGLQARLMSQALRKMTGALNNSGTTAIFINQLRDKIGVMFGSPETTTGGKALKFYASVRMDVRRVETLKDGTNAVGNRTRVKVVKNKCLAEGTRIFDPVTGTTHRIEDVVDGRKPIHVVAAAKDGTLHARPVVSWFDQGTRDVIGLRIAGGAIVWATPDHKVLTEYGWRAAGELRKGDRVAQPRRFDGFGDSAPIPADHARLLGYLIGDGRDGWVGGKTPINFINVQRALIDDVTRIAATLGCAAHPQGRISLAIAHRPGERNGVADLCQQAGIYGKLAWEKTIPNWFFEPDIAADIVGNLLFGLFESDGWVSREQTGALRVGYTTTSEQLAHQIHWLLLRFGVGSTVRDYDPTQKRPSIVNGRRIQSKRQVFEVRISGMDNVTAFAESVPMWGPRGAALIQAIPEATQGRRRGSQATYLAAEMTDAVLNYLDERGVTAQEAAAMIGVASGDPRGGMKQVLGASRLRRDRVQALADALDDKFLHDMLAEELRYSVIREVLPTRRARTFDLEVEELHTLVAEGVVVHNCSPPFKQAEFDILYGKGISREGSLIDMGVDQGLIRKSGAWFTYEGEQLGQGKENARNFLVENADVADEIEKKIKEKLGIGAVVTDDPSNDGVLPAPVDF
The experiment in a line: Fluorescence Cell-Free Homogeneous Dose Retest to Identify Inhibitors of RecA-Intein Splicing Activity. [Related pubchem assays (depositor defined):AID2097, AID2223, AID489010, AID492950]. The experiment is classed as functional.

Experiment [17] can be described thus: viability of HCT116 lacking mutant beta-catenin – cell-based, human colon tumor, dose response (AID 1045).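 Note: HCT116 colon tumor cells with beta catenin knocked out; cells exposed to compound for 60 hours.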 It counts as functional.
The target of experiment [18] is Peroxisome proliferator-activated receptor gamma/Nuclear receptor coactivator 3 (Homo sapiens, UniProt P37231). It counts as functional.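 Note: agonist potency for raising coactivator recruitment to the receptor.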
In experiment [19] the target is Peroxisome proliferator-activated receptor gamma/Nuclear receptor coactivator 1 (Homo sapiens, UniProt P37231). The experiment is classed as functional.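 Note: agonist potency as compounds enhance coactivator SRC-1 recruitment to PPARgamma.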

Activity calls are given as the source filed them. A value given as a limit tells only on which side of the number the result lay.

Sequence of 26S proteasome non-ATPase regulatory subunit 14 (O00487 whole entry): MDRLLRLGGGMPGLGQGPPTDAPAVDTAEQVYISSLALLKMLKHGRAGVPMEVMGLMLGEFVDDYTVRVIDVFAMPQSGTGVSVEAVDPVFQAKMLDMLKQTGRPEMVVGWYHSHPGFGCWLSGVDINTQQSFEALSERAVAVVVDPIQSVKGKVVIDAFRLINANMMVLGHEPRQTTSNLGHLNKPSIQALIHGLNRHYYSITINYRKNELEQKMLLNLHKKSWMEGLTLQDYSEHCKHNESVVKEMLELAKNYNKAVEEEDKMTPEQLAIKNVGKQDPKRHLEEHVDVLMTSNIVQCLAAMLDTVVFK
Sequence of Peroxisome proliferator-activated receptor gamma/Nuclear receptor coactivator 3 (P37231 whole entry): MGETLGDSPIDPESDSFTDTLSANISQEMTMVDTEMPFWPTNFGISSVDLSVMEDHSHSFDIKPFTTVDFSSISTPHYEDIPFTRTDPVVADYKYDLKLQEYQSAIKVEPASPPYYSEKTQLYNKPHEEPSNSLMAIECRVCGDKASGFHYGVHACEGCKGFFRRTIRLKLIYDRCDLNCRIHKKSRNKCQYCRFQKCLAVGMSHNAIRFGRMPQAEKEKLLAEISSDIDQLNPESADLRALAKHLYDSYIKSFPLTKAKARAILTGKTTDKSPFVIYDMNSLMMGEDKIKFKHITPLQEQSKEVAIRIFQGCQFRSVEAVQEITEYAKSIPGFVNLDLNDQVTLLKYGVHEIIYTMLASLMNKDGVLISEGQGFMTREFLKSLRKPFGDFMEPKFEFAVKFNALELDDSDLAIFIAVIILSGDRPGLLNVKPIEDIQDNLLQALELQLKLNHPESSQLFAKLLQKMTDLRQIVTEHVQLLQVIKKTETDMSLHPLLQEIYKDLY
Sequence of Peroxisome proliferator-activated receptor gamma/Nuclear receptor coactivator 3 (Q9Y6Q9 whole entry, further chain): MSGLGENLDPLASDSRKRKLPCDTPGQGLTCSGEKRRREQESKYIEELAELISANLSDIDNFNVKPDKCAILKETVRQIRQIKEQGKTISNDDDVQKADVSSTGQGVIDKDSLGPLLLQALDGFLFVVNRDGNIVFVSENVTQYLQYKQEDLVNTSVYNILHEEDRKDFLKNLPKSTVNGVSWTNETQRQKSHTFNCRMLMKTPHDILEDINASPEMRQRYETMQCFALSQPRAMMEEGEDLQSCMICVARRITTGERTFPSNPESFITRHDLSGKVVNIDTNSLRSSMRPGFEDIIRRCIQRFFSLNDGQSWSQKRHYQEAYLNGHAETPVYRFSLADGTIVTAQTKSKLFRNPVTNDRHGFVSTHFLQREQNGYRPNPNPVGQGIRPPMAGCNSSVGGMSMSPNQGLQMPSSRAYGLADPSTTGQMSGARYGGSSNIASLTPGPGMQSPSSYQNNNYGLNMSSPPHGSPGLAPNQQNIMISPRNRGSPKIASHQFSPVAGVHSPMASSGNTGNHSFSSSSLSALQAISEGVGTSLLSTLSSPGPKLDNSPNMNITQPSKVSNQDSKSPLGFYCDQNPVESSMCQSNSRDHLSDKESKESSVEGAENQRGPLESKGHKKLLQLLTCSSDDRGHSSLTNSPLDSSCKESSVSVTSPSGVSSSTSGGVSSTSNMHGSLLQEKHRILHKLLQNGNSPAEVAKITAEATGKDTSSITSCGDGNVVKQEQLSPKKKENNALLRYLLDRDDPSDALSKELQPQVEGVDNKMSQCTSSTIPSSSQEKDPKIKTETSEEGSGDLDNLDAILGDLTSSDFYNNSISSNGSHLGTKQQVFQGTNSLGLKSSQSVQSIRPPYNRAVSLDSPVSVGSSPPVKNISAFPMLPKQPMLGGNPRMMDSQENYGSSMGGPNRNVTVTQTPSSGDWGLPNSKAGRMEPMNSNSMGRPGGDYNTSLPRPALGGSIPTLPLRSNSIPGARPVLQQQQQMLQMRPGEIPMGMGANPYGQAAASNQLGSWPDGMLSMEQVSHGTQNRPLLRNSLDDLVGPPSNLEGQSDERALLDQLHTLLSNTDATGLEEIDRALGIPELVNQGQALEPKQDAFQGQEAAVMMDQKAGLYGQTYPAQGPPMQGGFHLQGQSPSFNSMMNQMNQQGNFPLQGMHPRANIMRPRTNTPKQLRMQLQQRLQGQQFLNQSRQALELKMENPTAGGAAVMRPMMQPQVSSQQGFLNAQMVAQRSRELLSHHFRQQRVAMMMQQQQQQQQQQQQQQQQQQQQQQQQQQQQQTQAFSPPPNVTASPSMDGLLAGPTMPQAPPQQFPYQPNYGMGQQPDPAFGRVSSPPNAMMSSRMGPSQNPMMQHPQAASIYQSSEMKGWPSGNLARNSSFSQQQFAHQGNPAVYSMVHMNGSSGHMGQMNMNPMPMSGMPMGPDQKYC
Sequence of Peroxisome proliferator-activated receptor gamma/Nuclear receptor coactivator 1 (P37231 whole entry): as the sequence (P37231 whole entry) above
Sequence of Peroxisome proliferator-activated receptor gamma/Nuclear receptor coactivator 1 (Q15788 whole entry, further chain): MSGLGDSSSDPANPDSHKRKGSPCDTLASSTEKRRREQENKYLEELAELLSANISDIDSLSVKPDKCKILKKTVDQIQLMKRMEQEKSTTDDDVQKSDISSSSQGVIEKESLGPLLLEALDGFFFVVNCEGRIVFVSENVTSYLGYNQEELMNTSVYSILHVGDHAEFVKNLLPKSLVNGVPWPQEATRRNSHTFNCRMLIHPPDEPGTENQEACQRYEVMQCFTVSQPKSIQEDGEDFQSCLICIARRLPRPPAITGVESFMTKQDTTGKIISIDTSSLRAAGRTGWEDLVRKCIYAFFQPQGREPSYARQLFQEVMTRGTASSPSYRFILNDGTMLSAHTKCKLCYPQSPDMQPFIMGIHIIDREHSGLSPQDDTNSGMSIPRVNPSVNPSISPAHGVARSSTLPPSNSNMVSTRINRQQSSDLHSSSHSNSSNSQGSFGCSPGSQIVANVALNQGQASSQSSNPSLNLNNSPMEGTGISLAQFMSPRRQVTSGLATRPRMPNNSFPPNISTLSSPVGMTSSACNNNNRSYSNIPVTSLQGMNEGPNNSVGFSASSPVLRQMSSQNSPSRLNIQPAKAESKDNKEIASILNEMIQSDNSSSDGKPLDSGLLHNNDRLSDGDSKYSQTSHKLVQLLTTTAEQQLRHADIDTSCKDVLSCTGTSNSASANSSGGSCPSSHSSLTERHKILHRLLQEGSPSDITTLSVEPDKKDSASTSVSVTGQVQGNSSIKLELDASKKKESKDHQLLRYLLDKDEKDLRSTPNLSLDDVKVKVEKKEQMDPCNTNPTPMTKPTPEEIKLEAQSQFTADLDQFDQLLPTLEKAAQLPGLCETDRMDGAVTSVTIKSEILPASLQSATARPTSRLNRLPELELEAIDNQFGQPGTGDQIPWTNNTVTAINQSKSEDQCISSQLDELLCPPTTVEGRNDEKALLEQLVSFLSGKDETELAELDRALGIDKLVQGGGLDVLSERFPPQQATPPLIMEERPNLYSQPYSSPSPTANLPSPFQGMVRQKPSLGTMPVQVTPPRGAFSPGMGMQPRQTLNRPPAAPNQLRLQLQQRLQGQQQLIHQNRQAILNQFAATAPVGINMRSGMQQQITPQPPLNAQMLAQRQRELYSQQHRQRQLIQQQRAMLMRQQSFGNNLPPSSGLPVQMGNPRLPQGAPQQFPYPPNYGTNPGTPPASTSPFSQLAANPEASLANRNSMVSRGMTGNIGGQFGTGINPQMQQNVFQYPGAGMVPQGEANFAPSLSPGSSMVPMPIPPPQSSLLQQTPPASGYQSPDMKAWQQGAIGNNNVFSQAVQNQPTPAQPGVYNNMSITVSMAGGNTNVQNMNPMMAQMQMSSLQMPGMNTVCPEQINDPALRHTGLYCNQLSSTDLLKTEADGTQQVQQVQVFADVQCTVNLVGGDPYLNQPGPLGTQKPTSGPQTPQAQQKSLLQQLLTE
Sequence of 72 kDa type IV collagenase (P08253 whole entry): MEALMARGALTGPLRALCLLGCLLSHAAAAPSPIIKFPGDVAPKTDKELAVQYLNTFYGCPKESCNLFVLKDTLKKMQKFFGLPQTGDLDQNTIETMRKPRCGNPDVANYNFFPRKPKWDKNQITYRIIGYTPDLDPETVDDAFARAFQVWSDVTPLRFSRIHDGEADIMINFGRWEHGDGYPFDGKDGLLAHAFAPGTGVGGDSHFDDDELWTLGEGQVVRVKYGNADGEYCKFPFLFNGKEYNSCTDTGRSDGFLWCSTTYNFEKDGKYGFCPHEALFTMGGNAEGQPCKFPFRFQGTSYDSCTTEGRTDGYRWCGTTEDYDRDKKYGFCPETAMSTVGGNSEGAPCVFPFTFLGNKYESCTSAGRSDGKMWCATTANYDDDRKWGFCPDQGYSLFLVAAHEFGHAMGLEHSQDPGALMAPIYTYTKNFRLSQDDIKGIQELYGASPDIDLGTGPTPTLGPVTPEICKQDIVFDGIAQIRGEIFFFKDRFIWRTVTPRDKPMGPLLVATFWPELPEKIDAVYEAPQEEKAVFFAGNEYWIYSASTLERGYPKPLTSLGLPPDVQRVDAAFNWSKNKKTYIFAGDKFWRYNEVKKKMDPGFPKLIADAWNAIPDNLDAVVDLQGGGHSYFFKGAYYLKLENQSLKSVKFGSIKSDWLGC

Turning to `CCN1CCc2c(sc(NC(=O)c3cc4ccccc4cc3OC)c2C(N)=O)C1`, the EC50 in the experiment on BJ [1] is 4.91 µM (inconclusive); in the experiment on BJ [4], 5.67 µM (inconclusive); in the experiment with BJ [5] it was 0.937 µM (active); in experiment [7], 40.7 µM (active); in the experiment on BJ [8], 4.46 µM (inconclusive); in [9] it was 6.38 µM (active). The concentration at half-maximal activity (AC50) in [2] is 3.75 µM (active). Further, the IC50 in experiment [3] was > 100 µM (inactive); at Prothrombin, 32.5 µM (active); in experiment [6], 26.3 µM (active).
Regarding `COc1ccc(Cn2c(-c3ccco3)nc3c(c(=O)c4ccccc4n3C)c2=O)cc1`, the IC50 in [10] is 39 µM (inactive); in experiment [12], > 47.1 µM (inactive). Moreover, the EC50 in experiment [11] is > 53 µM (inactive).
With `O=c1c(Cl)nc2cc(Cl)ccc2n1CCNc1ncc(C(F)(F)F)cc1Cl`, the EC50 in experiment [13] is 4.75 µM (active); in the experiment with BJ [1], 1.98 µM (active); in experiment [15], 20.1 µM (not active); on Protein RecA, 0.951 µM (active); in experiment [17], 4.66 µM (active); in [18], 36.3 µM (not active). For the same compound, the EC50 in the experiment on BJ [4] is 6.1 µM (inconclusive); with BJ [5], 0.574 µM (inconclusive); in the experiment with BJ [8], 2.67 µM (inconclusive); in experiment [9] it was 2.81 µM (inconclusive); in experiment [19], 19.8 µM (not active). For the same compound, the CC50 in experiment [14] was 11.5 µM (active). For the same compound, the AC50 in [16] is > 120 µM (inactive).

These data come from ChEMBL document CHEMBL1201862, “PubChem BioAssay data set” (2004).
